Where a name gives a salt, the structure may show the parent alone.
Compound | melting point
CCOC(=O)COC1CCN(C(=O)CN2Cc3cc(C(=N)NO)ccc3C2=O)CC1 [Example 68, (1-{2-[5-(N-Hydroxycarbamimidoyl)-1-oxo-1,3-dihydro-isoindol-2-yl]-acetyl}-piperidin-4-yloxy)-acetic acid ethyl ester] | 204 to 206 °C
CCOC(=O)COc1ccc(C(=O)CN2Cc3cc(C(=N)N)ccc3C2=O)c(O)c1 (as salt: salt) [Example 41, (4-{2-[5-Carbamimidoyl-1-oxo-1,3-dihydro-isoindol-2-yl]-acetyl}-3-hydroxy-phenoxy)-acetic acid ethyl ester] | 195 to 196 °C
CCOC(=O)COC1CCN(C(=O)CN2Cc3cc(C(=N)NC(=O)OC(C)(C)C)ccc3C2=O)CC1 (hydrate or solvate) [Example 72, (1-{2-[5-(tert-Butoxycarbonylamino-imino-methyl)-1-oxo-1,3-dihydro-isoindol-2-yl]-acetyl}-piperidin-4-yloxy)-acetic acid ethyl ester] | 83 to 85 °C
CCOC(=O)COc1ccc(C(=O)CN2Cc3cc(C(=N)NC(=O)OCC(C)C)ccc3C2=O)cc1N(CC(=O)OCC)S(C)(=O)=O (hydrate or solvate) [Example 39, (2-{Ethoxycarbonylmethyl-methanesulfonyl-amino}-4-{2-[5-(imino-isobutoxycarbonylamino-methyl)-1-oxo-1,3-dihydro-isoindol-2-yl]-acetyl}-phenoxy)-acetic acid ethyl ester] | 80 to 82 °C
COC(=O)COc1ccc(C(=O)CN2Cc3cc(C(=N)N)ccc3C2=O)cc1 (as salt: salt) [Example 1, (4-{2-[5-Carbamimidoyl-1-oxo-1,3-dihydro-isoindol-2-yl]-acetyl}-phenoxy)-acetic acid methyl ester] | 181 to 182 °C
N=C(N)c1ccc2c(c1)CN(CC(=O)c1ccc(OCC(=O)O)cc1)C2=O (as salt: hydrochloride) (hydrate or solvate) [Example 17, (4-{2-[5-Carbamimidoyl-1-oxo-1,3-dihydro-isoindol-2-yl]-acetyl}-phenoxy)-acetic acid] | > 250 °C (dec.)
CC(C)COC(=O)COc1ccc(C(=O)CN2Cc3cc(C(=N)N)ccc3C2=O)cc1OCC(=O)OCC(C)C (as salt: hydroiodid) [Example 24, (4-{2-[5-Carbamimidoyl-1-oxo-1,3-dihydro-isoindol-2-yl]-acetyl}-2-isobutoxycarbonylmethoxy-phenoxy)acetic acid isobutyl ester] | 95 to 96 °C
CCOC(=O)COc1ccc(C(=O)CN2Cc3cc(C(=N)NO)ccc3C2=O)cc1N(CC(=O)OCC)S(C)(=O)=O [Example 40, (2-{Ethoxycarbonylmethyl-methanesulfonyl-amino}-4-{2-[5-(N-hydroxycarbamimidoyl)-1-oxo-1,3-dihydro-isoindol-2-yl]-acetyl}-phenoxy)-acetic acid ethyl ester] | 165 to 167 °C
COC(=O)CSc1ccc(C(=O)CN2Cc3cc(C(=N)NO)ccc3C2=O)cc1 [Example 29, (4-{2-[5-(N-Hydroxycarbamimidoyl)-1-oxo-1,3-dihydro-isoindol-2-yl]-acetyl}-phenylsulfanyl)-acetic acid methyl ester] | 193 to 194 °C
CCOC(=O)COc1ccc(C(=O)CN2Cc3cc(C(=N)N)ccc3C2=O)c(OCC(=O)OCC)c1 (as salt: salt) (hydrate or solvate) [Example 47, (4-{2-[5-Carbamimidoyl-1-oxo-1,3-dihydro-isoindol-2-yl]-acetyl}-3-ethoxycarbonylmethoxy-phenoxy)-acetic acid ethyl ester] | 186 to 188 °C
CCOC(=O)COc1ccc(C(=O)CN2Cc3cc(C(=N)N)ccc3C2=O)cc1OCC(=O)OCC (as salt: salt) (hydrate or solvate) [Example 20, (4-{2-[5-Carbamimidoyl-1-oxo-1,3-dihydro-isoindol-2-yl]-acetyl}-2-ethoxycarbonylmethoxy-phenoxy)-acetic acid ethyl ester] | 168 to 169 °C
CCOC(=O)COc1cc(O)c(C(=O)CN2Cc3cc(C(=N)NO)ccc3C2=O)cc1CC [Example 50, (2-Ethyl-5-hydroxy-4-{2-[5-(N-hydroxycarbamimidoyl)-1-oxo-1,3-dihydro-isoindol-2-yl]-acetyl}-phenoxy)-acetic acid ethyl ester] | 218 to 219 °C
CCOC(=O)COc1ccc(C(=O)CN2Cc3cc(C(=N)NO)ccc3C2=O)c(OCC)c1 [Example 75, (3-Ethoxy-4-{2-[5-(N-hydroxycarbamimidoyl)-1-oxo-1,3-dihydro-isoindol-2-yl]-acetyl}-phenoxy)-acetic acid ethyl ester] | 192 to 194 °C
CCOC(=O)COc1cc(O)c(C(=O)CN2Cc3cc(C(=N)NO)ccc3C2=O)c(OC)c1 [Example 62, (3-Hydroxy-4-{2-[5-(N-hydroxycarbamimidoyl)-1-oxo-1,3-dihydro-isoindol-2-yl]-acetyl}-5-methoxy-phenoxy)-acetic acid ethyl ester] | 209 to 210 °C
CCOC(=O)COc1ccc(C(=O)CN2Cc3cc(C(=N)NO)ccc3C2=O)c(OC)c1 [Example 45, (4-{2-[5-(N-Hydroxycarbamimidoyl)-1-oxo-1,3-dihydro-isoindol-2-yl]-acetyl}-3-methoxy-phenoxy)-acetic acid ethyl ester] | 163 to 165 °C
CCOC(=O)COc1ccc(C(=O)CN2Cc3cc(C(=N)NO)ccc3C2=O)c(OCC(=O)OCC)c1 [Example 48, (3-Ethoxycarbonylmethoxy-4-{2-[5-(N-hydroxycarbamimidoyl)-1-oxo-1,3-dihydro-isoindol-2-yl]-acetyl}-phenoxy)-acetic acid ethyl ester] | 139 to 140 °C
CCOC(=O)COC1CCN(C(=O)CCN2Cc3cc(C(=N)NO)ccc3C2=O)CC1 [Example 69, (1-{3-[5-(N-Hydroxycarbamimidoyl)-1-oxo-1,3-dihydro-isoindol-2-yl]-propionyl}-piperidin-4-yloxy)-acetic acid ethyl ester] | 151 to 152 °C
CCOC(=O)COc1ccc(O)c(C(=O)CN2Cc3cc(C(=N)NO)ccc3C2=O)c1 [Example 61, (4-Hydroxy-3-{2-[5-(N-hydroxycarbamimidoyl)-1-oxo-1,3-dihydro-isoindol-2-yl]-acetyl}-phenoxy)-acetic acid ethyl ester] | 158 to 159 °C
COC(=O)NC(=N)c1ccc2c(c1)CN(CC(=O)c1ccc(OCC(=O)OC(C)C)cc1)C2=O [Example 6, (4-{2-[5-(Imino-methoxycarbonylamino-methyl)-1-oxo-1,3-dihydro-isoindol-2-yl]-acetyl}-phenoxy)-acetic acid isopropyl ester] | 183 to 184 °C
CC(C)COC(=O)COc1ccc(C(=O)CN2Cc3cc(C(=N)NC(=O)OCC(C)C)ccc3C2=O)cc1 (hydrate or solvate) [Example 12, (4-{2-[5-(Imino-isobutoxycarbonylamino-methyl)-1-oxo-1,3-dihydro-isoindol-2-yl]-acetyl}-phenoxy)-acetic acid isobutyl ester] | 140 to 141 °C
CCOC(=O)C(CCNC(=O)OCc1ccccc1)Oc1ccc(C(=O)CN2Cc3cc(C(=N)N)ccc3C2=O)cc1 (centres unmarked) (as salt: salt) [Example 27, 4-Benzyloxycarbonylamino-2-(4-{2-[5-carbamimidoyl-1-oxo-1,3-dihydro-isoindol-2-yl]-acetyl}-phenoxy)-butyric acid ethyl ester] | 164 to 165 °C
N=C(N)c1ccc2c(c1)CN(CC(=O)c1ccc(OCC(=O)OC3CCN(C(=O)OCc4ccccc4)CC3)cc1)C2=O (hydrate or solvate) [Example 26, 4-(2-{4-[2-(5-Carbamimidoyl-1-oxo-1,3-dihydro-isoindol-2-yl)-acetyl]-phenoxy}-acetoxy)-piperidine-1-carboxylic acid benzyl ester] | 180 to 181 °C
COC(=O)NC(=N)c1ccc2c(c1)CN(CC(=O)c1ccc(OCC(=O)OCc3ccccc3)cc1)C2=O (hydrate or solvate) [Example 18, (4-{2-[5-(Imino-methoxycarbonylamino-methyl)-1-oxo-1,3-dihydro-isoindol-2-yl]-acetyl}-phenoxy)-acetic acid benzyl ester] | 184 to 186 °C
CCOC(=O)COC1CCN(C(=O)CN2Cc3cc(C(=N)N)ccc3C2=O)CC1 (as salt: salt) (hydrate or solvate) [Example 71, (1-{2-[5-Carbamimidoyl-1-oxo-1,3-dihydro-isoindol-2-yl]-acetyl}-piperidin-4-yloxy)-acetic acid ethyl ester] | 189 to 190 °C
CC(C)COC(=O)COc1ccc(C(=O)CN2Cc3cc(C(=N)NC(=O)OCc4ccccc4)ccc3C2=O)cc1 [Example 13, (4-{2-[5-(Benzyloxycarbonylamino-imino-methyl)-1-oxo-1,3-dihydro-isoindol-2-yl]-acetyl}-phenoxy)-acetic acid isobutyl ester] | 139 to 140 °C
CCOC(=O)COc1ccc(C(=O)CN2Cc3cc(C(=N)NO)ccc3C2=O)c(O)c1C (hydrate or solvate) [Example 55, (3-Hydroxy-4-{2-[5-(N-hydroxycarbamimidoyl)-1-oxo-1,3-dihydro-isoindol-2-yl]-acetyl}-2-methyl-phenoxy)-acetic acid ethyl ester] | 226 to 228 °C
CCOC(=O)COc1ccc(C(=O)CN2Cc3cc(-c4nc(=O)o[nH]4)ccc3C2=O)c(O)c1 [Example 78, (3-Hydroxy-4-{2-[1-oxo-5-(5-oxo-2,5-dihydro-[1,2,4]oxadiazol-3-yl)-1,3-dihydro-isoindol-2-yl]-acetyl}-phenoxy)-acetic acid ethyl ester] | 223 to 225 °C
CCOC(=O)COc1cc(O)c(C(=O)CN2Cc3cc(C(=N)NO)ccc3C2=O)cc1C(C)(C)C [Example 52, (2-tert-Butyl-5-hydroxy-4-{2-[5-(N-hydroxycarbamimidoyl)-1-oxo-1,3-dihydro-isoindol-2-yl]-acetyl}-phenoxy)-acetic acid ethyl ester] | 177 to 178 °C
CCOC(=O)COc1ccc(C(=O)CN2Cc3cc(C(=N)NO)ccc3C2=O)c(O)c1Cl (hydrate or solvate) [Example 54, (2-Chloro-3-hydroxy-4-{2-[5-(N-hydroxycarbamimidoyl)-1-oxo-1,3-dihydro-isoindol-2-yl]-acetyl}-phenoxy)-acetic acid ethyl ester] | 214 to 215 °C

— US7964628B2, “Fibrinogen receptor antagonists and their use” (Piramal Life Sciences Limited, priority 2003, dated 2011)
